From patent publication US8338465B2, “Cyclic carboxylic acid rhodanine derivatives for the treatment and prevention of tuberculosis” (priority 2006, dated 2012)
pIC50: −log10 of the molar value.

target: T1, dihydrolipoamide acyltransferase (DlaT) (Mycobacterium tuberculosis, UniProt P9WIS7); experiment: DlaT inhibition (Dlat IC50); DTNB peroxidase assay with Lpd, DlaT and AhpD; type: biochemical; settings: Dlat IC50 category
T1 sequence (P9WIS7 1-553): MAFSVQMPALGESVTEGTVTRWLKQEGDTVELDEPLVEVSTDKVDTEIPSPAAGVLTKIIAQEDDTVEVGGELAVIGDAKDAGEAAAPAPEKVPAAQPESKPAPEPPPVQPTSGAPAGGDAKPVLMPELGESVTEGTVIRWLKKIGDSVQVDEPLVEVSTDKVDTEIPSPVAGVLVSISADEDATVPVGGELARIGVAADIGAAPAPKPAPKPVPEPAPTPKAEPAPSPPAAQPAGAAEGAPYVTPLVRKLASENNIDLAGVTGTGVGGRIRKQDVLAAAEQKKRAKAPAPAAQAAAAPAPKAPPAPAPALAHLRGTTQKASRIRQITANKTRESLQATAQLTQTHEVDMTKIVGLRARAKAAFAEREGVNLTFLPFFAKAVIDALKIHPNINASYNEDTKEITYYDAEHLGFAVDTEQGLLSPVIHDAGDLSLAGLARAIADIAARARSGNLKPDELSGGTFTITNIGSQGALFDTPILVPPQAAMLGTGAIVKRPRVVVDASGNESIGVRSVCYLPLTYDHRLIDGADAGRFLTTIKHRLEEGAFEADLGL

| Compound | pIC50 |
| --- | --- |
| CCc1ccccc1-c1ccc(C=C2SC(=S)N(Nc3ccccc3C(=O)O)C2=O)o1 [Compound D58, 2-{5-[1-[5-(2-ethyl-phenyl)-furan-2-yl]-methylidene]-4-oxo-2-thioxo-thiazolidin-3-ylamino}-benzoic acid] | > 5.00 |
| CCCCc1ccc(-c2ccc(C=C3SC(=S)N(Nc4ccccc4C(=O)O)C3=O)o2)cc1 [Compound D59, 2-{5-[1-[5-(4-butyl-phenyl)-furan-2-yl]-methylidene]-4-oxo-2-thioxo-thiazolidin-3-ylamino}-benzoic acid] | > 5.00 |
| CCCc1ccc(-c2ccc(C=C3SC(=S)N(Nc4ccccc4C(=O)O)C3=O)o2)cc1 [Compound D60, 2-{5-[1-[5-(4-propyl-phenyl)-furan-2-yl]-methylidene]-4-oxo-2-thioxo-thiazolidin-3-ylamino}-benzoic acid] | > 5.00 |
| O=C(O)c1cccc(N2C(=O)C(=Cc3ccc(-c4cc5ccccc5s4)o3)SC2=S)c1 [Compound I1] | > 5.00 |

same assay, conditions: Dlat IC50 category, Table 7, Compounds G1 to G4

| Compound | pIC50 |
| --- | --- |
| O=C(O)c1cccc(CCN2C(=O)C(=Cc3ccc(-c4ccccc4Cl)o3)SC2=S)c1 [Compound G1] | > 5.00 |
| O=C(O)c1cccc(CCN2C(=O)C(=Cc3ccc(-c4cccc(C(F)(F)F)c4)o3)SC2=S)c1 [Compound G2] | > 5.00 |
| O=C(O)c1cccc(CCN2C(=O)C(=Cc3ccc(-c4cc(C(F)(F)F)ccc4Cl)o3)SC2=S)c1 [Compound G3] | > 5.00 |
| O=C(O)c1cccc(CCN2C(=O)C(=Cc3ccc(-c4cc(Cl)ccc4Cl)o3)SC2=S)c1 [Compound G4] | > 5.00 |

same assay, conditions: Dlat IC50 category, Table 10, Compounds J1 to J3

| Compound | pIC50 |
| --- | --- |
| O=C(O)C(Cc1ccccc1)N1C(=O)C(=Cc2ccc(-c3cc4ccccc4s3)o2)SC1=S (stereo not drawn) [Compound J3] | > 5.00 |

same assay, conditions: Dlat IC50 category, Table 13, Compounds M1 to M4

| Compound | pIC50 |
| --- | --- |
| O=C(O)c1cncc(N2C(=O)C(=Cc3ccc(-c4ccccc4Cl)o3)SC2=S)c1 [Compound M1] | > 5.00 |
| O=C(O)c1cncc(N2C(=O)C(=Cc3ccc(-c4cccc(C(F)(F)F)c4)o3)SC2=S)c1 [Compound M2] | > 5.00 |
| CC(C)(C)c1ccc(-c2ccc(C=C3SC(=S)N(c4cncc(C(=O)O)c4)C3=O)o2)cc1 [Compound M3] | > 5.00 |
| N#Cc1c(F)cccc1-c1ccc(C=C2SC(=S)N(c3cncc(C(=O)O)c3)C2=O)o1 [Compound M4] | 4.40 to 4.96 |

same assay, conditions: Dlat IC50 category, Table 14, Compounds N1 to N3

| Compound | pIC50 |
| --- | --- |
| O=C(O)c1cccc(N2C(=O)C(=Cc3ccc(Cc4ccccc4Cl)o3)SC2=S)c1 [Compound N1] | > 5.00 |
| COc1ccc(C(=O)O)cc1N1C(=O)C(=Cc2ccc(Cc3ccccc3Cl)o2)SC1=S [Compound N2] | 4.40 to 4.96 |
| O=C(O)c1cc(N2C(=O)C(=Cc3ccc(Cc4ccccc4Cl)o3)SC2=S)ccc1O [Compound N3] | > 5.00 |

same assay, conditions: Dlat IC50 category, Table 16, Compounds P1 to P2

| Compound | pIC50 |
| --- | --- |
| O=C(O)C(c1ccccc1)N1C(=O)C(=Cc2cccc(-c3ccc(Cl)s3)n2)SC1=S (stereo not drawn) [Compound P1] | > 5.00 |
| O=C(O)CCN1C(=O)C(=Cc2cccc(-c3ccc(Cl)s3)n2)SC1=S [Compound P2] | 4.40 to 4.96 |

same assay, conditions: Dlat IC50 category, Table 17, Compounds Q1 to Q9

| Compound | pIC50 |
| --- | --- |
| O=C(O)c1cccc(N2C(=O)C(=Cc3ccc(-c4cncnc4)o3)SC2=S)c1 [Compound Q1] | 4.40 to 4.96 |
| O=C(O)c1ccc(N2C(=O)C(=Cc3ccc(-c4cncnc4)o3)SC2=S)cc1 [Compound Q2] | 4.40 to 4.96 |
| NS(=O)(=O)c1ccc(N2C(=O)C(=Cc3ccc(-c4cncnc4)o3)SC2=S)cc1 [Compound Q3] | 4.40 to 4.96 |
| O=C(O)c1cccc(N2C(=O)C(=Cc3ccc(-c4ccncc4)o3)SC2=S)c1 [Compound Q4] | 4.40 to 4.96 |
| O=C(O)c1cc(N2C(=O)C(=Cc3ccc(-c4ccsc4Cl)o3)SC2=S)ccc1O [Compound Q5] | 4.40 to 4.96 |
| O=C(O)c1cccc(N2C(=O)C(=Cc3ccc(-c4ccc5nonc5c4)o3)SC2=S)c1 [Compound Q9] | 4.40 to 4.96 |

same assay, conditions: Dlat IC50 category, Table 20, Prodrugs (Compounds T1 to T8)

| Compound | pIC50 |
| --- | --- |
| O=C(OCCCCO)c1cccc(N2C(=O)C(=Cc3ccc(-c4ccccc4Cl)o3)SC2=S)c1 [Compound T1, 3-{5-[1-[5-(2-Chloro-phenyl)-furan-2-yl]-methylidene]-4-oxo-2-thioxo-thiazolidin-3-yl}-benzoic acid 4-hydroxy-butyl ester] | 4.10 to 4.39 |
| O=C(OCCCO)c1cccc(N2C(=O)C(=Cc3ccc(-c4ccccc4Cl)o3)SC2=S)c1 [Compound T2, 3-{5-[1-[5-(2-Chloro-phenyl)-furan-2-yl]-methylidene]-4-oxo-2-thioxo-thiazolidin-3-yl}-benzoic acid 3-hydroxy-propyl ester] | 4.10 to 4.39 |
| O=C(OCCCCOP(=O)(O)O)c1cccc(N2C(=O)C(=Cc3ccc(-c4ccccc4Cl)o3)SC2=S)c1 [Compound T3, 3-{5-[1-[5-(2-Chloro-phenyl)-furan-2-yl]-methylidene]-4-oxo-2-thioxo-thiazolidin-3-yl}-benzoic acid 4-phosphonooxy-butyl ester] | 4.10 to 4.39 |
| O=C(OCC(CO)CO)c1cccc(N2C(=O)C(=Cc3ccc(-c4ccccc4Cl)o3)SC2=S)c1 [Compound T4, 3-{5-[1-[5-(2-Chloro-phenyl)-furan-2-yl]-methylidene]-4-oxo-2-thioxo-thiazolidin-3-yl}-benzoic acid 3-hydroxy-2-hydroxymethyl-propyl ester] | 4.40 to 4.96 |
| O=C(NC(CO)(CO)CO)c1cccc(N2C(=O)C(=Cc3ccc(-c4ccccc4Cl)o3)SC2=S)c1 [Compound T6, 3-{5-[1-[5-(2-Chloro-phenyl)-furan-2-yl]-methylidene]-4-oxo-2-thioxo-thiazolidin-3-yl}-N-(2-hydroxy-1,1-bis-hydroxymethyl-ethyl)-benzamide] | 4.40 to 4.96 |
| O=C(NC(CO)CO)c1cccc(N2C(=O)C(=Cc3ccc(-c4ccccc4Cl)o3)SC2=S)c1 [Compound T7, 3-{5-[1-[5-(2-Chloro-phenyl)-furan-2-yl]-methylidene]-4-oxo-2-thioxo-thiazolidin-3-yl}-N-(2-hydroxy-1-hydroxymethyl-ethyl)-benzamide] | 4.40 to 4.96 |
| O=C(OCCN(CCO)CCO)c1cccc(N2C(=O)C(=Cc3ccc(-c4ccccc4Cl)o3)SC2=S)c1 [Compound T8, 3-{5-[1-[5-(2-Chloro-phenyl)-furan-2-yl]-methylidene]-4-oxo-2-thioxo-thiazolidin-3-yl}-benzoic acid 2-[bis-(2-hydroxy-ethyl)-amino]-ethyl ester] | 4.10 to 4.39 |

same assay, conditions: Dlat IC50 category, Table 21, Prodrugs (Examples U1 to U10)

| Compound | pIC50 |
| --- | --- |
| CNS(=O)(=O)c1ccc(-c2ccc(C=C3SC(=S)N(C4CCCC(C(=O)OCCCO)C4)C3=O)o2)cc1 (stereo not drawn) [Compound U2, 3-{5-[1-[5-(4-Methylsulfamoyl-phenyl)-furan-2-yl]-methylidene]-4-oxo-2-thioxo-thiazolidin-3-yl}-cyclohexanecarboxylic acid 3-hydroxy-propyl ester] | 4.40 to 4.96 |
| CSc1ccc(-c2ccc(C=C3SC(=S)N(C4CCCC(C(=O)OCCO)C4)C3=O)o2)cc1 (stereo not drawn) [Compound U3, 3-{5-[1-[5-(4-Methylsulfanyl-phenyl)-furan-2-yl]-methylidene]-4-oxo-2-thioxo-thiazolidin-3-yl}-cyclohexanecarboxylic acid 2-hydroxy-ethyl ester] | 4.10 to 4.39 |
| CSc1ccc(-c2ccc(C=C3SC(=S)N(C4CCCC(C(=O)OCCCCO)C4)C3=O)o2)cc1 (stereo not drawn) [Compound U4, 3-{5-[1-[5-(4-Methylsulfanyl-phenyl)-furan-2-yl]-methylidene]-4-oxo-2-thioxo-thiazolidin-3-yl}-cyclohexanecarboxylic acid 4-hydroxy-butyl ester] | 4.10 to 4.39 |
| CSc1ccc(-c2ccc(C=C3SC(=S)N(C4CCCC(C(=O)OCC(CO)CO)C4)C3=O)o2)cc1 (stereo not drawn) [Compound U5, 3-{5-[1-[5-(4-Methylsulfanyl-phenyl)-furan-2-yl]-methylidene]-4-oxo-2-thioxo-thiazolidin-3-yl}-cyclohexanecarboxylic acid 3-hydroxy-2-hydroxymethyl-propyl ester] | 4.40 to 4.96 |
| CSc1ccc(-c2ccc(C=C3SC(=S)N(C4CCCC(C(=O)OCC(C)(CO)CO)C4)C3=O)o2)cc1 (stereo not drawn) [Compound U6, 3-{5-[1-[5-(4-Methylsulfanyl-phenyl)-furan-2-yl]-methylidene]-4-oxo-2-thioxo-thiazolidin-3-yl}-cyclohexanecarboxylic acid 3-hydroxy-2-hydroxymethyl-2-methyl-propyl ester] | 4.10 to 4.39 |
| CSc1ccc(-c2ccc(C=C3SC(=S)N(C4CCCC(C(=O)NC(CO)(CO)CO)C4)C3=O)o2)cc1 (stereo not drawn) [Compound U7, 3-{5-[1-[5-(4-Methylsulfanyl-phenyl)-furan-2-yl]-methylidene]-4-oxo-2-thioxo-thiazolidin-3-yl}-cyclohexanecarboxylic acid (2-hydroxy-1,1-bis-hydroxymethyl-ethyl)-amide] | 4.10 to 4.39 |

same assay, conditions: Table 20, Prodrugs (Compounds T1 to T8); read-out: Dlat IC50 category

| Compound | pIC50 |
| --- | --- |
| CC(CO)(CO)COC(=O)c1cccc(N2C(=O)C(=Cc3ccc(-c4ccccc4Cl)o3)SC2=S)c1 [Compound T5, 3-{5-[1-[5-(2-Chloro-phenyl)-furan-2-yl]-methylidene]-4-oxo-2-thioxo-thiazolidin-3-yl}-benzoic acid 3-hydroxy-2-hydroxymethyl-2-methyl propyl ester] | 4.40 to 4.96 |

same assay, conditions: read-out: Dlat IC50 category

| Compound | pIC50 |
| --- | --- |
| O=C(O)c1cccc(CCN2C(=O)C(=Cc3ccc(-c4cc5ccccc5s4)o3)SC2=S)c1 [Compound H1] | 4.40 to 4.96 |
